In paper PMC11583597, “Brain uptake pharmacokinetics of albiglutide, dulaglutide, tirzepatide, and DA5-CH in the search for new treatments of Alzheimer’s and Parkinson’s diseases” (Tissue Barriers, 2023):

How the values were obtained:
[1] = design: species or system male CD-1 mice; details: mouse, in vivo, iv
Description: Anesthetized mice were co-injected iv with 3 × 10^5 cpm-1×10^6 cpm ^125I/^14C-IRA and 5 × 10^5 cpm of ^99mTc-Alb in 0.2 ml BSA-LR with or without 1 μg of the non-radioactive IRA. Fifteen minutes after iv injection, blood was collected from the right carotid artery, and the whole brain was removed and weighed. Samples were counted for radioactivity. Results were expressed as delta B/S ratios in units of μl/g.

[2] = Octanol/buffer partition coefficient (lipid solubility); assay type: physicochemical; details: pH 7.5
Description: We measured the lipid solubility of the IRAs, using octanol and PB. Briefly, 1 × 10^5 counts per minute (cpm) of each ^125I/^14C-IRA were added to triplicate tubes containing equal volumes PB and octanol (Sigma-Aldrich). This solution was vigorously mixed for 1 min and centrifuged at 5500 ×g for 10 min to separate the two phases. Aliquots of 100 μl were taken in duplicate from each phase, and total radioactivity was counted in a gamma counter (Wizard2, Perkin-Elmer) or beta counter (TriCarb 3110TR, Perkin-Elmer). The ratio of the cpm in the octanol phase to the cpm in the buffer phase equates to the mean partition coefficient (Pcoeff) and indicates lipophilicity. The log value for the coefficient can be either greater than unity, indicative of a lipophilic compound, or less than unity, indicative of a hydrophilic compound.

[3] = Brain influx and initial volume of distribution (multiple-time regression analysis); design: species or system male CD-1 mice; details: mouse, in vivo, iv
Description: Following anesthetization, the jugular vein and right carotid artery were exposed. Mice were given a jugular vein injection of 0.2 ml BSA-LR containing 3 × 10^5 cpm-1×10^6 cpm of an ^125I/^14C-labeled IRA and 5 × 10^5 cpm of ^99mTc-Alb. Blood samples were collected from the carotid artery at various time points from 1 to 60 min after iv injection (see Figure 1). Mice were then decapitated, and their brains were removed and weighed. After clotting, the arterial blood was centrifuged at 3200 ×g for 10 min. Levels of radioactivity in serum (50 μl) and brain were measured in a gamma counter for ^125I and ^99mTc for 3 min. After ^99mTc decay, ^14C-DA5-CH samples were solubilized with Solvable (Sigma), transferred to scintillation vials containing Ecoscint (National Diagnostics) and ^14C was measured in a beta counter. Sample injection checks were taken throughout the course of the study to calculate the mean injected cpm/mouse. To determine the rate of ^125I/^14C-IRA clearance from the serum, the results were expressed as the percentage of an injected dose in each ml of serum (%Inj/ml), which was calculated by dividing the cpm in a ml of serum (cpm/ml serum) by the cpm injected into the mouse (cpm/Inj):
To calculate the blood-to-brain unidirectional influx constant (Ki), multiple-time regression analysis was used as first described by Patlak, Blasberg, and Fenstermacher.[67],[68] The brain/serum (B/S) ratios (μl/g) of the ^125I/^14C-IRA in each gram of brain were calculated from the data in Section 2.6 and plotted against their respective exposure times as previously applied by Rhea et al. 2018.[69] Exposure time differs from clock time in that exposure time corrects for clearance of the ^125I/^14C-IRA from blood and thus, better represents the amount of ^125I/^14C-IRA available for BBB transport at any given time. Delta B/S ratios were calculated by subtracting the vascular space as measured by the B/S ratio for ^99mTc-Alb from the B/S ratio for the respective ^125I/^14C-IRA. Thus, delta B/S ratios represent material that has been taken up by or has crossed the BBB. The slope of the linear portion of the relation between delta B/S ratios and exposure time defines Ki (μl/g-min) and is reported with its error term. This represents Model 1 for DA5-CH. The y-intercept of this linear portion of the relation defines Vi, (μl/g), the initial volume of distribution in brain at t = 0, which is the functional volume per unit brain mass of a soluble compound that exchanges rapidly and reversibly with plasma.[68] Vi consists of the vascular space (Vv) and any residual space after accounting for Vv and usually represents vascular binding (Vr). Since we correct each ^125I/^14C-IRA delta B/S for vascular space, our y-intercept values likely represent vascular binding. For DA5-CH, there appeared to be rapid, early transport that would indicate a Vr equal to 0. Therefore, using Vr equal to 0, we calculated an estimate of this new Ki and refer to it throughout the manuscript as Model 2.

With `CC[C@H](C)[C@H](NC(=O)[C@H](CC(C)C)NC(=O)[C@H](Cc1c[nH]c2ccccc12)NC(=O)[C@H](CCC(N)=O)NC(=O)[C@@H](NC(=O)[C@H](Cc1ccccc1)NC(=O)[C@H](C)NC(=O)[C@H](CCCCNC(=O)COCCOCCNC(=O)COCCOCCNC(=O)CC[C@H](NC(=O)CCCCCCCCCCCCCCCCCCC(=O)O)C(=O)O)NC(=O)[C@H](CCC(N)=O)NC(=O)[C@H](C)NC(=O)[C@@H](NC(=O)[C@H](CCCCN)NC(=O)[C@H](CC(=O)O)NC(=O)[C@H](CC(C)C)NC(=O)C(C)(C)NC(=O)[C@@H](NC(=O)[C@H](CO)NC(=O)[C@H](Cc1ccc(O)cc1)NC(=O)[C@H](CC(=O)O)NC(=O)[C@H](CO)NC(=O)[C@@H](NC(=O)[C@H](Cc1ccccc1)NC(=O)[C@@H](NC(=O)CNC(=O)[C@H](CCC(=O)O)NC(=O)C(C)(C)NC(=O)[C@@H](N)Cc1ccc(O)cc1)[C@@H](C)O)[C@@H](C)O)[C@@H](C)CC)[C@@H](C)CC)C(C)C)C(=O)N[C@@H](C)C(=O)NCC(=O)NCC(=O)N1CCC[C@H]1C(=O)N[C@@H](CO)C(=O)N[C@@H](CO)C(=O)NCC(=O)N[C@@H](C)C(=O)N1CCC[C@H]1C(=O)N1CCC[C@H]1C(=O)N1CCC[C@H]1C(=O)N[C@@H](CO)C(N)=O` [Tirzepatide] the “Whole Brain delta brain/serum ratio, Without unlabeled IRA” value [1] was -0.16 ± 0.13 µL/g, the “Lipid Solubility Partition Coefficient” value [2] was 0.1318 ± 0.0126 and the “Log Partition Coefficient (Log P)” value [2] was -0.884 ± 0.0405. For the same compound, the “Brain influx within 1 h of iv injection (detection)” value [3] was “did not detect brain influx”.
